US5587459A, “Immunoconjugates comprising tyrosine kinase inhibitors” (Regents of the University of Minnesota, priority 1994, dated 1996)
Read-outs that look alike come from different tables or passages of the source.

Legend:
[1] = test system: NALM-6 cells (human B-lineage leukemia); assay: SCID mouse model of human B-lineage leukemia; assay type: in vivo; conditions: SCID mice inoculated with NALM-6 cells; schedule of each treatment group as in Table 6
Procedure: (§1) The pharmacokinetic features of B43-GEN was evaluated in a SCID mouse model with human B-lineage leukemia as follows. SCID mice challenged with NALM-6 cells were treated with either 25 μg/mouse=168 pmols/mouse (>10-foldlower than the MTD) or 50 μg/mouse=335 pmols/mouse (>5-fold lower than the MTD). All control mice were treated with unconjugated GEN (10 μg/mouse=37 nmols/mouse), unconjugated B43 antibody (50 μg/mouse=335pmols/mouse), TXU(anti-CD7)-GEN control immunoconjugate (50 μg/mouse=335 pmols/mouse), or PBS.
All control mice treated with unconjugated GEN, unconjugated B43 antibody, TXU(anti-CD7)-GEN control immunoconjugate, or PBS died of disseminated human B-lineage leukemia at 24 to 61 days after inoculation (FIG. 8). […] These long-term surviving mice were electively killed at 142 days in order to examine their burden of human leukemia cells.

[2] = molecular target: T1, CD19-associated LYN kinase (Homo sapiens, UniProt P07948); assay: Immune complex kinase assay, LYN in treated NALM-6 cells; assay type: cell-based; conditions: NALM-6 cells treated 4 hours; immunoconjugate nanomolar, unconjugated GEN micromolar
T1 construct: LYN kinase immunoprecipitated from NALM-6 cells; endogenous in cells; host or cells: NALM-6
T1 sequence (P07948 2-512 limits assumed): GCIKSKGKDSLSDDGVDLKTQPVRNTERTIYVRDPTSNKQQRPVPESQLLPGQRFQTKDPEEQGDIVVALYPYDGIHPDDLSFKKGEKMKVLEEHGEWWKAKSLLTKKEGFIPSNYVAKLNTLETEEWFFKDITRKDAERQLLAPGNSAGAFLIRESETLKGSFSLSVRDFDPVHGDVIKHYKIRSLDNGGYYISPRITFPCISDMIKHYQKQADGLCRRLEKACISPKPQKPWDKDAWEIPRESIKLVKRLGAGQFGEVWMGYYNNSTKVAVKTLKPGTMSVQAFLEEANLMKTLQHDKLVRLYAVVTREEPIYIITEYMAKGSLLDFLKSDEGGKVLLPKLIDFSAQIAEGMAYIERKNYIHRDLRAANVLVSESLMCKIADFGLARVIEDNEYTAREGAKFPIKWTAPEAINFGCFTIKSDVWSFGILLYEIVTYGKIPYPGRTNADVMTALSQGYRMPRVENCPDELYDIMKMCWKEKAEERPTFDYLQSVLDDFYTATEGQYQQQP
Procedure: Immune complex kinase assays were performed using acid-denatured rabbit enolase as an exogenous PTK substrate as previously described by Uckun et al. in J. Biol. Chem., 268, 21172 (1993).
Controls were treated with unconjugated GEN, TXU(anti-CD7)-GEN immunoconjugate directed against the CD7/Tp41 T-cell surface antigen, unconjugated and unmodified B43 antibody, or SANPAH-modified unconjugated B43 antibody.

[3] = test system: tyrosine phosphorylation of abundant protein substrates in NALM-6 cells; assay: Antiphosphotyrosine immunoblotting, NALM-6 cells; assay type: cell-based, human; conditions: immunoconjugate nanomolar, unconjugated GEN micromolar
RAMOS cells = assay: Apoptosis assays in RAMOS cells (morphology, DNA flow cytometry, DNA fragmentation); assay type: cell-based, human
Source text: DNA was then electrophoresed through a 1% agarose gel and visualized by UV light after staining with ethidium bromide.

[4] = test system: RAMOS cells (human Burkitt's lymphoma); assay: SCID mouse model of human B-lineage lymphoma; assay type: in vivo, SCID mice; conditions: 5×10^6 RAMOS cells; one value pooled over all control groups incl. PBS
Procedure: Control mice were treated with unconjugated GEN (10 μg/mouse=37 nmols/mouse), unconjugated B43 monoclonal antibody (50 μg/mouse=335 pmols/mouse), TXU(anti-CD7)-GEN control immunoconjugate (50 μg/mouse=335 pmols/mouse), or PBS. For comparison, some mice were treated with B43-pokeweed antiviral protein (PAP) immunotoxin (total=25 μg/mouse), which is an active anti-leukemia agent. Uckun et al., J. Exp. Med., 163, 347 (1986). Survival of the mice was monitored by daily observation and event times were measured from the day of inoculation of lymphoma cells to the day of death. The probability of event-free survival was determined and event-free interval curves were generated using the Kaplan-Meier product limit method as described by Uckun et al. New Engl. J. Med., 329, 1296 (1993).

in vivo [5] = assay type: in vivo, SCID mice; conditions: Minimal Leukemia Burden
Procedure: Lines represent two-compartment model simulations, symbols depict measured concentrations.
as §1

in vivo [6] = assay: in vivo; set-up: species or system SCID mice; conditions: Minimal Leukemia Burden; for Kp: mouse, in vivo, iv
Procedure: FIG. 7[C] is a depiction of the plasma or tissue concentrations vs. time curves after i.v. injection of 58 pmol GEN (Δ) or BP43-GEN (o,) into SCID mice with end stage leukemia (dashed lines) or no leukemia (solid lines). Lines represent simulations from the physiological pharmacokinetic model, symbols depict measured concentrations.
as §1
This hypothesis is supported by measurement of higher concentrations of the immunoconjugate in tissues of SCID mice with end-stage leukemia, when compared to healthy SCID mice which have not been inoculated with leukemia cells (FIG. 7C). The spleen, liver, and lungs had the highest tissue-to-plasma ratio, with the tissue distribution ratio increasing approximately 2-fold in spleen and liver of mice with end-stage leukemia (Table 5). Although tissue distribution of the immunoconjugate into the femur was low in mice with a minimal leukemia burden, it increased 3-fold in mice with end-stage leukemia, reflecting binding of the immunoconjugate to CD19 positive human B-lineage leukemia cells infiltrating bone marrow.

[7] = molecular target: T2, human topoisomerase II enzyme (Homo sapiens, UniProt P11388); assay: Topoisomerase II Drug Screening kit (pRYG relaxation/cleavage); assay type: biochemical; conditions: B43-GEN at micromolar concentrations
T2 construct: purchased Topogen, Inc., Columbus, Ohio
T2 sequence (P11388 whole entry): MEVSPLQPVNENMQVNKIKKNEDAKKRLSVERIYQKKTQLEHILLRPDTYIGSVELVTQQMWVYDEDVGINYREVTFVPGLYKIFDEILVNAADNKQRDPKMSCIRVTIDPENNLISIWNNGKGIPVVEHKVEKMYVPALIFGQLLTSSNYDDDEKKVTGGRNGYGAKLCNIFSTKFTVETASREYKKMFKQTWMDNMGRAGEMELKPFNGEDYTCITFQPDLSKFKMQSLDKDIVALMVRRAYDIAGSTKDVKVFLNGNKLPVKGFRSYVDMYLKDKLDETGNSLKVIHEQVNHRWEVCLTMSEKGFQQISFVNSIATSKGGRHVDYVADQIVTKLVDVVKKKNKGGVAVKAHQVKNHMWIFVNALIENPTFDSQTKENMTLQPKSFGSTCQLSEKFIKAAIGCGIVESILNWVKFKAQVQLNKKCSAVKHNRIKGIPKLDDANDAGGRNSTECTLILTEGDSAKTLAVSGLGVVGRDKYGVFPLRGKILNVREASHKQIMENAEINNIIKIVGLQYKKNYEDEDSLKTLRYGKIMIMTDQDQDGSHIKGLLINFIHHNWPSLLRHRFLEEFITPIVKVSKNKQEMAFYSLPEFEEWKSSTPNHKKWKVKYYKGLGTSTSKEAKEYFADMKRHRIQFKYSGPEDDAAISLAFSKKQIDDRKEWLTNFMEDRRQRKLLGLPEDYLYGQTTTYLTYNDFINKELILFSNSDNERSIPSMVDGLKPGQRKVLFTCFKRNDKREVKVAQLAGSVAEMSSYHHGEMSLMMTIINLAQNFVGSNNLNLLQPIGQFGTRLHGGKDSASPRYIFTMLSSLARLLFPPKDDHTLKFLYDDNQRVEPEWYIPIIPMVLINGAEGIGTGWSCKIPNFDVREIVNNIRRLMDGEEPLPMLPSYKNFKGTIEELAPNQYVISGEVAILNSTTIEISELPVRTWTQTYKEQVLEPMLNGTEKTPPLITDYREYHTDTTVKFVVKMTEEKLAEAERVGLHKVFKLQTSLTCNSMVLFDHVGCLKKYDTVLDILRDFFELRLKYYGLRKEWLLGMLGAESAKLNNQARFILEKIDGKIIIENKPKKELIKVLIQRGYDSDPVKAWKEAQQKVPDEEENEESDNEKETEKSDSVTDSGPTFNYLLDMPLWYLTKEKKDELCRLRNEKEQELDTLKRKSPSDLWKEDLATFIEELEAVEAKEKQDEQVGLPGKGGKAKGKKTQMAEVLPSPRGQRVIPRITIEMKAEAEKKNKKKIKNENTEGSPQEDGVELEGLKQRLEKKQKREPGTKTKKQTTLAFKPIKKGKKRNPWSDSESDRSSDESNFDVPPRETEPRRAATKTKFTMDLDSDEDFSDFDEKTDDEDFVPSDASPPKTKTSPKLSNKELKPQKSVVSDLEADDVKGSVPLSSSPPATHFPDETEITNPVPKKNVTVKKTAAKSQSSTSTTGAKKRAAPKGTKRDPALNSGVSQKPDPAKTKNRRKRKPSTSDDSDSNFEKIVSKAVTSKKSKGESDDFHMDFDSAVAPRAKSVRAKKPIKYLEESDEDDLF
Source text: The kit is based upon formation of DNA cleavage products after treatment of a supercoiled DNA substrate (pRYG) containing a single high affinity topoisomerase II recognition and cleavage site.

L-asparaginase
EFS (%) 60 days [1]: 0%
EFS (%) 120 days [1]: 0%
Median EFS [1]: 44 days

O=c1c(-c2ccc(O)cc2)coc2cc(O)cc(O)c12 [GEN, 5,7,4'-trihydroxyisoflavone]
Inhibition of LYN kinase (autophosphorylation, enolase substrate phosphorylation) [2]: failed to affect
Tyrosine dephosphorylation of abundant protein substrates [3]: failed to affect
DNA fragmentation / apoptosis by agarose gel electrophoresis (RAMOS cells; RAMOS cells, 8-24 hours, immunoconjugates nanomolar, unconjugated GEN micromolar): no fragmentation
DNA fragmentation by the unconjugated moieties (RAMOS cells; high concentrations, FIG. 4B lower panel): induced DNA fragmentation
Median event-free survival [4]: 48.0 days
Cl (systemic clearance from plasma) (in vivo [5]): 49.7 µL/h/g
Kcp (distribution rate constant from central to peripheral compartment) (in vivo [5]): 1.341 h⁻¹
Kpc (distribution rate constant from peripheral to central compartment) (in vivo [5]): 0.549 h⁻¹
Vc (central volume of distribution) (in vivo [5]): 87.0 µL/g
k el (in vivo [5]; mouse, in vivo, iv, read-out: Ke (elimination rate constant) (converted)): 0.000159 s⁻¹
half-life (in vivo [5]; mouse, in vivo, iv, read-out: T1/2β (elimination halflife) (converted)): 5.1 h
Clearance, Kidney (in vivo [6]): 18.7 µL/h/g
Clearance, Liver (in vivo [6]): 40.9 µL/h/g
Total Clearance (in vivo [6]): 59.6 µL/h/g
Kp (in vivo [6]; read-out: Linear Binding Constant (R), Brain): 0.027
Kp (in vivo [6]; read-out: Linear Binding Constant (R), Heart): 0.335
Kp (in vivo [6]; read-out: Linear Binding Constant (R), Kidney): 0.253
Kp (in vivo [6]; read-out: Linear Binding Constant (R), Liver): 0.5
Kp (in vivo [6]; read-out: Linear Binding Constant (R), Lungs): 0.531
Kp (in vivo [6]; read-out: Linear Binding Constant (R), Muscle): 0.095
Kp (in vivo [6]; read-out: Linear Binding Constant (R), Skin): 0.208
Kp (in vivo [6]; read-out: Linear Binding Constant (R), Spleen): 0.04
Kp (in vivo [6]; residual drug not accounted for by tissues studied, read-out: Linear Binding Constant (R), Rest of Body): 1.11

O=P1(N(CCCl)CCCl)NCCCO1 (stereo not drawn) [Cyclophosphamide]
EFS (%) 60 days [1]: 40%
EFS (%) 120 days [1]: 10%
Median EFS [1]: 54 days

CC[C@@]1(O)C(=O)OCc2c1cc1n(c2=O)Cc2cc3c(CN(C)C)c(O)ccc3nc2-1 [Topotecan]
EFS (%) 60 days [1]: 18%
EFS (%) 120 days [1]: 0%
Median EFS [1]: 44 days

COc1cc([C@@H]2c3cc4c(cc3[C@@H](O[C@@H]3O[C@@H]5CO[C@@H](c6cccs6)O[C@H]5[C@H](O)[C@H]3O)[C@H]3COC(=O)[C@H]23)OCO4)cc(OC)c1O [teniposide (VM-26), teniposide]
Inhibition of topoisomerase II (relaxation of supercoiled pRYG DNA) [7]: impairs the ability of human topoisomerase II to relax the supercoiled DNA substrate

CC(=O)O[C@H]1C(=O)[C@@]2(C)[C@H]([C@H](OC(=O)c3ccccc3)[C@]3(O)C[C@H](OC(=O)[C@H](O)[C@@H](NC(=O)c4ccccc4)c4ccccc4)C(C)=C1C3(C)C)[C@]1(OC(C)=O)CO[C@@H]1C[C@@H]2O [Taxol]
EFS (%) 60 days [1]: 0%
EFS (%) 120 days [1]: 0%
Median EFS [1]: 37 days

COc1cccc2c1C(=O)c1c(O)c3c(c(O)c1C2=O)C[C@@](O)(C(=O)CO)C[C@@H]3O[C@H]1C[C@H](N)[C@H](O)[C@H](C)O1 [Doxorubicin]
EFS (%) 60 days [1]: 20%
EFS (%) 120 days [1]: 0%
Median EFS [1]: 49 days

C[C@H]1C[C@@H]2[C@H](C(=O)C[C@@]3(C)[C@H]2CC[C@]3(O)C(=O)CO)[C@@]2(C)C=CC(=O)C=C12 [Methylprednisone]
EFS (%) 60 days [1]: 40%
EFS (%) 120 days [1]: 20%
Median EFS [1]: 56 days

COc1cc([C@@H]2c3cc4c(cc3[C@@H](O[C@@H]3O[C@@H]5CO[C@@H](C)O[C@H]5[C@H](O)[C@H]3O)[C@H]3COC(=O)[C@H]23)OCO4)cc(OC)c1O [Etoposide]
EFS (%) 60 days [1]: 60%
EFS (%) 120 days [1]: 30%
Median EFS [1]: 66 days

CC[C@]1(O)C[C@H]2CN(CCc3c([nH]c4ccccc34)[C@@](C(=O)OC)(c3cc4c(cc3OC)N(C=O)[C@H]3[C@@](O)(C(=O)OC)[C@H](OC(C)=O)[C@]5(CC)C=CCN6CC[C@]43[C@@H]65)C2)C1 [Vincristine]
EFS (%) 60 days [1]: 0%
EFS (%) 120 days [1]: 0%
Median EFS [1]: 51 days

O=NN(CCCl)C(=O)NCCCl [Carmustine]
EFS (%) 60 days [1]: 20%
EFS (%) 120 days [1]: 0%
Median EFS [1]: 54 days

Nc1ccn([C@@H]2O[C@H](CO)[C@@H](O)[C@@H]2O)c(=O)n1 [Cytarabine]
EFS (%) 60 days [1]: 20%
EFS (%) 120 days [1]: 0%
Median EFS [1]: 57 days
